Reference: ChEMBL document CHEMBL1201862, “PubChem BioAssay data set” (2004)
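Exposure lasted 48 hours, with cells grown in 96-well plates and compounds tested at five concentrations. Here, GI50 denotes the concentration required for 50% inhibition of growth.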 Activity calls are given as the source filed them. No stated cut-off is given here; in the data, active = GI50 up to about 1.1 µM and inactive = higher.

What was measured:
Assay in all cases: inhibition of tumour cell growth, NCI panel, 48 h
[1] = system: UO-31
[2] = system: BT-549
[3] = system: NCI-H522
[4] = system: SF-295
[5] = system: TK-10
[6] = system: SK-MEL-2
[7] = system: COLO 205
[8] = system: HCC 2998
[9] = system: CCRF-CEM
[10] = system: KM12
[11] = system: SK-MEL-5
[12] = system: RXF 393
[13] = system: Hs-578T
[14] = system: SK-MEL-28
[15] = system: HCT-116
[16] = system: OVCAR-3
[17] = system: A549
[18] = system: NCI-H23
[19] = system: MDA-MB-231
[20] = system: A498
[21] = system: HOP-62
[22] = system: SF-539
[23] = system: M14
[24] = system: NCI/ADR-RES
[25] = system: UACC-62
[26] = system: SF-268
[27] = system: EKVX
[28] = system: HOP-92
[29] = system: SW-620
[30] = system: HT-29
[31] = system: SNB-75
[32] = system: PC-3
[33] = system: HL-60
[34] = system: LOX IMVI
[35] = system: IGROV-1
[36] = system: OVCAR-4
[37] = system: DU-145
[38] = system: K562
[39] = system: OVCAR-5
[40] = system: MDA-N
[41] = system: MCF7
[42] = system: MOLT-4
[43] = system: NCI-H226
[44] = system: CAKI-1
[45] = system: MDA-MB-435
[46] = system: UACC-257
[47] = system: SN12C
[48] = system: NCI-H460
[49] = system: ACHN
[50] = system: SR
[51] = system: RPMI-8226
[52] = system: SK-OV-3
[53] = system: 786-0
[54] = system: U-251
[55] = system: SNB-19
[56] = system: HCT-15
[57] = system: OVCAR-8
[58] = system: Malme-3M

With `C=C(Cl)/C(=C\Cl)CCC(Br)C(C)C` (stereo not given) the GI50 [1] was 78.2 µM (inactive), the GI50 [2] was > 100 µM (inactive) and the GI50 [3] was 21.1 µM (inactive). The GI50 [4] was > 100 µM (inactive), the GI50 [5] was > 100 µM (inactive) and the GI50 [6] was > 100 µM (inactive). The GI50 [7] was > 100 µM (inactive), the GI50 [8] was > 100 µM (inactive) and the GI50 [9] was 44.5 µM (inactive). For the same molecule, the GI50 [10] was > 100 µM (inactive), the GI50 [11] was > 100 µM (inactive) and the GI50 [12] was 77.3 µM (inactive). The GI50 [13] was > 100 µM (inactive), the GI50 [14] was 78.5 µM (inactive) and the GI50 [15] was > 100 µM (inactive). For the same molecule, the GI50 [16] was > 100 µM (inactive), the GI50 [17] was > 100 µM (inactive) and the GI50 [18] was > 100 µM (inactive). For the same molecule, the GI50 [19] was 24.9 µM (inactive), the GI50 [20] was > 100 µM (inactive) and the GI50 [21] was > 100 µM (inactive). The GI50 [22] was > 100 µM (inactive), the GI50 [23] was 64.3 µM (inactive) and the GI50 [24] was > 100 µM (inactive). For the same molecule, the GI50 [25] was 51.8 µM (inactive), the GI50 [26] was > 100 µM (inactive) and the GI50 [27] was > 100 µM (inactive). For the same molecule, the GI50 [28] was > 100 µM (inactive), the GI50 [29] was 19.5 µM (inactive) and the GI50 [30] was > 100 µM (inactive). The GI50 [31] was > 100 µM (inactive), the GI50 [32] was > 100 µM (inactive) and the GI50 [33] was 63.5 µM (inactive). The GI50 [34] was 15.8 µM (inactive), the GI50 [35] was > 100 µM (inactive) and the GI50 [36] was 29.2 µM (inactive). The GI50 [37] was > 100 µM (inactive), the GI50 [38] was 36.2 µM (inactive) and the GI50 [39] was > 100 µM (inactive). For the same molecule, the GI50 [40] was 41 µM (inactive), the GI50 [41] was 48.9 µM (inactive) and the GI50 [42] was 37.9 µM (inactive). For the same molecule, the GI50 [43] was > 100 µM (inactive), the GI50 [44] was > 100 µM (inactive) and the GI50 [45] was 81.5 µM (inactive). For the same molecule, the GI50 [46] was 58.5 µM (inactive), the GI50 [47] was > 100 µM (inactive) and the GI50 [48] was > 100 µM (inactive). For the same molecule, the GI50 [49] was > 100 µM (inactive), the GI50 [50] was > 100 µM (inactive) and the GI50 [51] was > 100 µM (inactive). The GI50 [52] was > 100 µM (inactive), the GI50 [53] was 60.1 µM (inactive) and the GI50 [54] was > 100 µM (inactive). For the same molecule, the GI50 [55] was > 100 µM (inactive).
With `O=C(CNc1ccccn1)Nn1cnc2ccc(S(=O)(=O)Nc3ccccn3)cc2c1=O` the GI50 [1] was > 100 µM (inactive), the GI50 [2] was > 100 µM (inactive) and the GI50 [3] was > 100 µM (inactive). For the same molecule, the GI50 [4] was > 100 µM (inactive), the GI50 [5] was > 100 µM (inactive) and the GI50 [6] was > 100 µM (inactive). The GI50 [7] was > 100 µM (inactive), the GI50 [8] was > 100 µM (inactive) and the GI50 [9] was > 100 µM (inactive). The GI50 [10] was > 100 µM (inactive), the GI50 [56] was greater than 100 µM and the GI50 [13] was > 100 µM (inactive). The GI50 [14] was > 100 µM (inactive), the GI50 [15] was > 100 µM (inactive) and the GI50 [16] was > 100 µM (inactive). For the same molecule, the GI50 [17] was > 100 µM (inactive), the GI50 [18] was > 100 µM (inactive) and the GI50 [19] was > 100 µM (inactive). For the same molecule, the GI50 [57] was > 100 µM (inactive), the GI50 [21] was > 100 µM (inactive) and the GI50 [58] was > 100 µM (inactive). The GI50 [22] was > 100 µM (inactive), the GI50 [23] was > 100 µM (inactive) and the GI50 [24] was > 100 µM (inactive). For the same molecule, the GI50 [25] was > 100 µM (inactive), the GI50 [26] was > 100 µM (inactive) and the GI50 [27] was > 100 µM (inactive). The GI50 [28] was > 100 µM (inactive), the GI50 [29] was > 100 µM (inactive) and the GI50 [30] was > 100 µM (inactive). The GI50 [31] was > 100 µM (inactive), the GI50 [32] was > 100 µM (inactive) and the GI50 [33] was > 100 µM (inactive). For the same molecule, the GI50 [34] was > 100 µM (inactive), the GI50 [35] was 70.1 µM (inactive) and the GI50 [36] was > 100 µM (inactive). For the same molecule, the GI50 [37] was > 100 µM (inactive), the GI50 [38] was > 100 µM (inactive) and the GI50 [39] was > 100 µM (inactive). The GI50 [40] was > 100 µM (inactive), the GI50 [41] was > 100 µM (inactive) and the GI50 [42] was > 100 µM (inactive). The GI50 [43] was > 100 µM (inactive), the GI50 [44] was > 100 µM (inactive) and the GI50 [45] was > 100 µM (inactive). For the same molecule, the GI50 [46] was > 100 µM (inactive), the GI50 [47] was > 100 µM (inactive) and the GI50 [48] was > 100 µM (inactive). For the same molecule, the GI50 [49] was > 100 µM (inactive), the GI50 [50] was > 100 µM (inactive) and the GI50 [51] was > 100 µM (inactive). For the same molecule, the GI50 [52] was > 100 µM (inactive), the GI50 [53] was > 100 µM (inactive) and the GI50 [54] was > 100 µM (inactive). For the same molecule, the GI50 [55] was > 100 µM (inactive).
